Source: US10457639B2, “Fluorescent regulators of RASSF1A expression and human cancer cell proliferation” (GEORGETOWN UNIVERSITY, priority 2008, dated 2019)

Key:
wild-type Balb/c mice = assay: Acute oral toxicity up-and-down procedure; assay type: in vivo
Experimental: Animals. Balb/c mice and athymic Balb/c nude mice were purchased from the National Cancer Institute (NCI). Animals were housed 4-6 per cage with microisolater tops and provided food (Furina mice chow) and water ad libitum. The light cycle was regulated automatically (12 hours light/dark cycle) and temperature was maintained at 23±1° C. All animals were allowed to acclimate to this environment for one week prior to experimental manipulations. The Georgetown University Animal Care and Use Committee approved all animal studies in accordance with the guidelines adopted by the National Institute of Health.
This provided an ample therapeutic index of >55 at a starting efficacy dose of 10 mg/kg. Athymic Balb/c nude mice with human prostate tumor xenografts were dosed via intraperitoneal injection with 10 mg/kg of compound 6a once a day every other day for 25 days. Control mice were dosed with vehicle alone. Compound 6a reduced tumor volume by roughly 40% compared to control over 25 days (FIG. 8).

RASSF1A = assay: RT-PCR of RASSF1A mRNA in treated PC-3 cells; assay type: cell-based, human; conditions: 5 μM, 24 hours
Experimental: Representative photograph of an experiment repeated thrice. PC-3 cells were treated 24 hours with either 15 μM for compounds 6, 7, 7a, 8, 9, 10 or 5 μM for compound KED-4-69 (compound 6a) before RNA extraction and RT-PCR amplification.
Reverse Transcriptase-polymerase Chain Reaction (RT-PCR). From PC-3 cells incubated 24 hours with either 15 μM of compound 6, 7, 7a, 8, 9, 10 or 5 μM of KED-4-69 (compound 6a), RNA was extracted with TRIzol solution (Invitrogen, Carlsbad, Calif.) and genes of interest were amplified using 500 ng of total RNA reverse-transcribed to cDNA using a Superscript II kit (Invitrogen) with random hexamers. Human-specific primers were designed using the Primer Quest program and purchased from Integrated DNA Technologies, Inc. (Coralville, Iowa). Their sequences and product band sizes are: cyclin D1 forward primer 5′-[…]-3′ (SEQ ID NO:1), cyclin D1 reverse primer 5′-[…]-3′ (SEQ ID NO:2) (475 bp) and GAPDH forward primer: 5′-CCA […]-3′ (SEQ ID NO:3), GAPDH reverse primer: 5′-TCTAGACGGCAG GTCAGGTCCACC-3′ (SEQ ID NO:4) (598 bp). PCRs were initiated at 94° C. for 2 min, followed by 28 cycles of 94° C. for 1 min, 1 min annealing temperature, 72° C. for 1 min, and final extension at 72° C. for 5 min. The annealing temperature for cyclin D1 and GAPDH was 60° C. Primers and PCR conditions for RASSF1A are used as described by Rong et al. (Oncogene. 2004, 23, 8216-8230). After amplification, PCR products were separated on 1.5% agarose gels and visualized by ethidium bromide fluorescence using the Fuji LAS-1000 Imager. Images were captured and imported to Adobe Photoshop. Band intensities were quantified by using ImageJ software (NIH, Bethesda, Md.).
It has been reported that mRNA levels of RASSF1A correlate to its protein expression levels (Rong et al. Oncogene, 2004, 23: 8216-8230). To investigate the effects of the synthetic compounds on RASSF1A and cyclin D1 expression, levels of the respective mRNAs in treated cells compared to control were analyzed (FIG. 3). […] Because overexpression of cyclin D1 is associated with tumorigenicity and proliferation in a variety of tumors, including prostate cancers, this downregulation provides a cancer treatment method (Chen, Y. et al. Oncogene. 1998, 16, 1913-1920; Musgrove, E. A. et al. Proc. Natl. Acad. Sci. USA. 1994, 91, 8022-8026).

PC-3 cells = assay: BrdU labeling, DNA synthesis (Cell Proliferation ELISA BrdU); assay type: cell-based, human; conditions: 5 μM compound, 24 hours
Experimental: PC-3 cells were plated in 96-well plates and treated with 5 μM of compound. After 24 hours, the cells were assayed for BrdU labeling using the Cell Proliferation ELISA BrdU kit from Roche; background BrdU incorporation levels (absent anti-BrdU-peroxidase solution) were subtracted and values were normalized to those of control untreated cells.
BrdU Labeling. For the BrdU experiment, PC-3 cells were seeded in 96-well plates at a density of 2×10^3 cells/well, treated with 5 μM of compound for 24 hr and assayed BrdU using the Cell Proliferation ELISA BrdU (chemiluminescence) (Roche Diagnostics, IN) kit according to the manufacturer's protocol. Briefly, 10 μL of 100 μM BrdU labeling solution was added to the cultured cells and were incubated for 1 hr at 37° C., the labeling solution was removed and the FixDenat solution provided with the kit was added for 30 min and incubated at room temperature. Cells were then incubated with anti-BrdU conjugated to peroxidase (1:1500) for 60 min. Finally, the plates were washed and 100 μL of substrate solution was added to each well, and the light emission was measured using a microplate luminometer (Harta Instruments, Inc., Gaithersburg, Md.).
To assess the levels of DNA synthesis within cells treated with mahanine compared to those treated with compounds 6-10, cultured cells were treated according to standard procedure with 5-bromo-2-deoxy-uridine (BrdU) after 24 hours of treatment (FIG. 2).

SMILES: COc1ccc2c(c1)[nH]c1c(C)c(OS(=O)(=O)c3cccc4c(N(C)C)cccc34)ccc12 [Compound 6a, 7-Methoxy-1-methyl-9H-carbazol-2-yl 5-(dimethylamino)naphthalene-1-sulfonate]
- therapeutic index (wild-type Balb/c mice; 550 mg/kg without toxicity versus starting efficacy dose of 10 mg/kg): > 55
- acute oral toxicity (wild-type Balb/c mice; wild-type Balb/c mice dosed up to 550 mg/kg, oral): no toxicity was observed
- RASSF1A mRNA level versus control (RASSF1A): significant increase in RASSF1A
- DNA synthetic ability (BrdU labeling) (PC-3 cells): decrease in DNA synthetic ability
